System: Qa-1
Assay: Qa-1/peptide binding assay (flow cytometry-based competition with biotinylated Qdm)
Design: species or system mouse
Details: Qa-1 transfected HeLa cells, 0.5 μM biotinylated Qdm + 5 or 10 μM unlabeled competing peptide, 1.5 hours at 4°C, Fig 2A

OT-I: negative control OT-I peptide
Competition with bio-Qdm for binding to Qa-1 (decrease in streptavidin-APC staining): unable to do so

Source: PMC5435364 (PLoS Pathogens, 2017)
